Columns and labels:
Test in all cases: radiometric filter-binding kinase assay, Kinase HotSpot
Conditions in all cases: compound 0.5 µM; ATP 10 µM
AKT1 (human) = AKT1 (human) (UniProt P31749)
MAP4K2 (human) = MAP4K2 (human) (UniProt Q12851)
PRKCI (human) = PRKCI (human) (UniProt P41743)
HIPK2 (human) = HIPK2 (human) (UniProt Q9H2X6)
IKBKE (human) = IKBKE (human) (UniProt Q14164)
PAK6 (human) = PAK6 (human) (UniProt Q9NQU5)
HIPK1 (human) = HIPK1 (human) (UniProt Q86Z02)
PLK1 (human) = PLK1 (human) (UniProt P53350)
PBK (human) = PBK (human) (UniProt Q96KB5)
EPHB3 (human) = EPHB3 (human) (UniProt P54753)
MAPK3 (human) = MAPK3 (human) (UniProt P27361)
MAPK1 (human) = MAPK1 (human) (UniProt P28482)
MAPK1 (human), sequence (P28482 whole entry, looked up): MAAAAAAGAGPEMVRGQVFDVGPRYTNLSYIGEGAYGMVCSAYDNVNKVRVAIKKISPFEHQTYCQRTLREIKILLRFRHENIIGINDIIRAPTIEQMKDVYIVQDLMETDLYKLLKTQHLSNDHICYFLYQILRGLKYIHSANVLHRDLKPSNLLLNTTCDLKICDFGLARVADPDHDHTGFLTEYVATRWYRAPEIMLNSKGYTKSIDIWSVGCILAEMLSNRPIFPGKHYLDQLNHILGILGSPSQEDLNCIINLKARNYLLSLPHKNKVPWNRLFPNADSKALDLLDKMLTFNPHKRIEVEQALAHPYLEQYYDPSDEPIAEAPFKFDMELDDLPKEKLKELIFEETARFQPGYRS

FLT1 (human) = FLT1 (human) (UniProt P17948)
TGFBR2 (human) = TGFBR2 (human) (UniProt P37173)
MAP3K9 (human) = MAP3K9 (human) (UniProt P80192)
FRK (human) = FRK (human) (UniProt P42685)
RET (human) = RET (human) (UniProt P07949)
RET (human), sequence (P07949 whole entry, looked up): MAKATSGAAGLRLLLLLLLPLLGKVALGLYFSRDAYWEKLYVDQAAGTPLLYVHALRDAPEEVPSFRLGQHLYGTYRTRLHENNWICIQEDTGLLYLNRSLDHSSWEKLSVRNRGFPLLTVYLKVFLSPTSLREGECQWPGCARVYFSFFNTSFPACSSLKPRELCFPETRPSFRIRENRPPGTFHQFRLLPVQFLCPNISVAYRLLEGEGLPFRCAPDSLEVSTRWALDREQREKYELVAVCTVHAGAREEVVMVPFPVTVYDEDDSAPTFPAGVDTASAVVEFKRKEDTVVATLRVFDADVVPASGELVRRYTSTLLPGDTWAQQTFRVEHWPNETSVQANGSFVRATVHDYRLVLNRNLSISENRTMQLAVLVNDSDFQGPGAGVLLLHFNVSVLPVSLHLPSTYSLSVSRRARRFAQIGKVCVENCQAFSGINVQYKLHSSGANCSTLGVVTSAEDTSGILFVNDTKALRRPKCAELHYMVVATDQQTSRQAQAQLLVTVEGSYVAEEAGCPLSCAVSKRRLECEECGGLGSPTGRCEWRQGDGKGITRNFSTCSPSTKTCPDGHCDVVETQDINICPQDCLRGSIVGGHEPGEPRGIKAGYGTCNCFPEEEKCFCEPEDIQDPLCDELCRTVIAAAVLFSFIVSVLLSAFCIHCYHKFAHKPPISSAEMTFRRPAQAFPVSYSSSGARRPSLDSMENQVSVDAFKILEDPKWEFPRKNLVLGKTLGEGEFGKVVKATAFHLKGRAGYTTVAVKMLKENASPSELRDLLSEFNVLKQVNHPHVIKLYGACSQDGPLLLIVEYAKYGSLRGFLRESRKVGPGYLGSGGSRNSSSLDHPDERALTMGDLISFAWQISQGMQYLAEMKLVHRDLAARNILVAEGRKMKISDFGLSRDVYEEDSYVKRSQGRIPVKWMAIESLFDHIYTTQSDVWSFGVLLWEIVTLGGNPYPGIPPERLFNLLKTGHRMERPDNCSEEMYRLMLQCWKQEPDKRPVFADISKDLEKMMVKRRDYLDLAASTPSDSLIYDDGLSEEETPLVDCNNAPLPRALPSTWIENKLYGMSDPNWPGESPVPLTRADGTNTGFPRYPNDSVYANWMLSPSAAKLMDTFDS

MAPK9 (human) = MAPK9 (human) (UniProt P45984)
MLTK (human) = MLTK (human) (UniProt Q9NYL2)
PDGFRB (human) = PDGFRB (human) (UniProt P09619)
EPHA3 (human) = EPHA3 (human) (UniProt P29320)
MINK1 (human) = MINK1 (human) (UniProt Q8N4C8)
EPHB4 (human) = EPHB4 (human) (UniProt P54760)
RPS6KA2 KD1 KD2 (human) = RPS6KA2 KD1 KD2 (human) (UniProt Q15349)
CSNK1G2 (human) = CSNK1G2 (human) (UniProt P78368)
PNCK (human) = PNCK (human) (UniProt Q6P2M8)
SYK (human) = SYK (human) (UniProt P43405)
TSSK2 (human) = TSSK2 (human) (UniProt Q96PF2)
FES (human) = FES (human) (UniProt P07332)
PIM1 (human) = PIM1 (human) (UniProt P11309)
PRKCA (human) = PRKCA (human) (UniProt P17252)
AKT2 (human) = AKT2 (human) (UniProt P31751)
AKT2 (human), sequence (P31751 whole entry, looked up): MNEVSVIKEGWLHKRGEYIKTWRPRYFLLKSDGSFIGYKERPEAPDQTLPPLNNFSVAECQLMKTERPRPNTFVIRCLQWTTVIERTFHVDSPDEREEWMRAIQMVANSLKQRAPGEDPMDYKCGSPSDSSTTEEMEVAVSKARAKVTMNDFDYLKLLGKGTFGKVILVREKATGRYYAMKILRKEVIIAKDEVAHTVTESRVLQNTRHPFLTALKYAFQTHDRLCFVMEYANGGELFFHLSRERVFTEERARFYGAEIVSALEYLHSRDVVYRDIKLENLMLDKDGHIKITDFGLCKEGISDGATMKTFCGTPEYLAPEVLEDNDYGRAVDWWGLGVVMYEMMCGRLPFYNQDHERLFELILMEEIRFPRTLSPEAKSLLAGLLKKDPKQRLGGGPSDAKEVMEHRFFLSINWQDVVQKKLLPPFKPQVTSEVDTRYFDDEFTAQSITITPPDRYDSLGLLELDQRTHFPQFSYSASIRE

MAPK8 (human) = MAPK8 (human) (UniProt P45983)
FGFR3 (human) = FGFR3 (human) (UniProt P22607)
TXK (human) = TXK (human) (UniProt P42681)
PAK7 (human) = PAK7 (human) (UniProt Q9P286)
MAP3K5 (human) = MAP3K5 (human) (UniProt Q99683)
CHEK1 (human) = CHEK1 (human) (UniProt O14757)
PIM2 (human) = PIM2 (human) (UniProt Q9P1W9)
ULK2 (human) = ULK2 (human) (UniProt Q8IYT8)
ULK2 (human), sequence (Q8IYT8 whole entry, looked up): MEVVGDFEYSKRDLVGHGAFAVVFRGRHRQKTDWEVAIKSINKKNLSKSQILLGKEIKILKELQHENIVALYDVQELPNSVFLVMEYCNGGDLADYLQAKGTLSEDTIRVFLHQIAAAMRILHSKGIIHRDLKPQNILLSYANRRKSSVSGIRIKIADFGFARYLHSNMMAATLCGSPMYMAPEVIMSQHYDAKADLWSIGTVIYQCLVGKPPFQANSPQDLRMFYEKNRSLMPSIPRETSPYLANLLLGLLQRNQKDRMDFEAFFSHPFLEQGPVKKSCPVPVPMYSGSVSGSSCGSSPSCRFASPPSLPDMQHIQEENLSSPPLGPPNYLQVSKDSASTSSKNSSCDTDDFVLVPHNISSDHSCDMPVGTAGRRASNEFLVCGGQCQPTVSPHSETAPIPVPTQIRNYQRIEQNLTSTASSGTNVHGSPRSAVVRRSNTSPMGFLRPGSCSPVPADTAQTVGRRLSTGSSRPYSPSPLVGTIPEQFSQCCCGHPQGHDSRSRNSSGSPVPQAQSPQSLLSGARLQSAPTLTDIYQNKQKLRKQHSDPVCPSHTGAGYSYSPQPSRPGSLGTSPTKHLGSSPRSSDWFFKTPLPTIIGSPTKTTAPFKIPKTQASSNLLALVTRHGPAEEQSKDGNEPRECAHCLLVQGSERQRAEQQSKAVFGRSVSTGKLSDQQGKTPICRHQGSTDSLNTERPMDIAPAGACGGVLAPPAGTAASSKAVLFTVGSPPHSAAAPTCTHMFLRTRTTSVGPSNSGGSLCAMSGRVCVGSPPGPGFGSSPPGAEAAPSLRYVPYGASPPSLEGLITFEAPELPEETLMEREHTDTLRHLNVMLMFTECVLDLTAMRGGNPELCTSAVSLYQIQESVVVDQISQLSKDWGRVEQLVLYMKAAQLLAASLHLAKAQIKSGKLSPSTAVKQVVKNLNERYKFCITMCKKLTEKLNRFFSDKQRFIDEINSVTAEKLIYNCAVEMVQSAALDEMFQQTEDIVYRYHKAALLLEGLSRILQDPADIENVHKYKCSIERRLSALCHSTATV

MAP3K10 (human) = MAP3K10 (human) (UniProt Q02779)
EPHA7 (human) = EPHA7 (human) (UniProt Q15375)

PRKCI (human), sequence (P41743 whole entry, looked up): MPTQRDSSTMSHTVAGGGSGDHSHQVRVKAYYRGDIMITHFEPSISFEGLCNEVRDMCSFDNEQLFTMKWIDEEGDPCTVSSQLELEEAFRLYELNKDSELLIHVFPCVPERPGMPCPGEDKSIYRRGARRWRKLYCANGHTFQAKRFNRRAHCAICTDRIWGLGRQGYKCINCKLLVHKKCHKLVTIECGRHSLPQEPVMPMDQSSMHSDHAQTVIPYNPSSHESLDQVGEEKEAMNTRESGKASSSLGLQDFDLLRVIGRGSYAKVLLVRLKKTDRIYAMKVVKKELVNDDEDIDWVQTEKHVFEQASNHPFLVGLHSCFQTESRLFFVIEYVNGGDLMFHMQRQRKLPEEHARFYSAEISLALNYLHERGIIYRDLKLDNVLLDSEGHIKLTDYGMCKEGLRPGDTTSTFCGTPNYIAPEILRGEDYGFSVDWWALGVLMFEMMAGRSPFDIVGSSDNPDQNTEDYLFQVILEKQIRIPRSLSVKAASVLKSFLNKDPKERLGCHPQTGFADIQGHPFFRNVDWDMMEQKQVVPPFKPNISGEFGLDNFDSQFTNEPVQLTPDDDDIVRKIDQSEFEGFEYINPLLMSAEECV
PAK6 (human), sequence (Q9NQU5 whole entry, looked up): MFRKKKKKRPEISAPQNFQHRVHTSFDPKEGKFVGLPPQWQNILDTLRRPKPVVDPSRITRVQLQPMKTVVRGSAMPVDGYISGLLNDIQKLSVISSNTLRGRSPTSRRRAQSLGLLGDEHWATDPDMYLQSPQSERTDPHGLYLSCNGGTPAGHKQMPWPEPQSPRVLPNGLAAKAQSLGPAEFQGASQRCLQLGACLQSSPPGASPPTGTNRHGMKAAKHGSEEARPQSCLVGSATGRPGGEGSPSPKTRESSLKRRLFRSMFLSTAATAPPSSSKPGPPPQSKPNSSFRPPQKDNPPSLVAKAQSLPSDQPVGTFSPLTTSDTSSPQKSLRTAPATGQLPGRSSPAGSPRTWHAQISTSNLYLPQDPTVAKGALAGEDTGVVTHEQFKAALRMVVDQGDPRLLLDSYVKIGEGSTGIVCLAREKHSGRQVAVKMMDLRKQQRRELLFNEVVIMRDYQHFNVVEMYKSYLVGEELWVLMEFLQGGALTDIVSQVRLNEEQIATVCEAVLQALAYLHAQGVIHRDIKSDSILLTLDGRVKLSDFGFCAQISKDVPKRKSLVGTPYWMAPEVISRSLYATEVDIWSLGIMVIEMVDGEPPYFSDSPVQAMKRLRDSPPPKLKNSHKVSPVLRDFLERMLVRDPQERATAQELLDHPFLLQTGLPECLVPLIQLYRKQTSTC

Compound: Fc1ccc(-c2nc3n(c2-c2ccncc2)CCS3)cc1
- residual activity (AKT1 (human)): 105%
- residual activity (MAP4K2 (human)): 109%
- residual activity (PRKCI (human)): 90.9%
- residual activity (HIPK2 (human)): 99.2%
- residual activity (IKBKE (human)): 101%
- residual activity (PAK6 (human)): 106%
- residual activity (HIPK1 (human)): 108%
- residual activity (PLK1 (human)): 101%
- residual activity (PBK (human)): 100%
- residual activity (EPHB3 (human)): 96.1%
- residual activity (MAPK3 (human)): 103%
- residual activity (MAPK1 (human)): 106%
- residual activity (FLT1 (human)): 84.1%
- residual activity (TGFBR2 (human)): 137%
- residual activity (MAP3K9 (human)): 83.6%
- residual activity (FRK (human)): 104%
- residual activity (RET (human)): 99.5%
- residual activity (MAPK9 (human)): 90.6%
- residual activity (MLTK (human)): 100%
- residual activity (PDGFRB (human)): 107%
- residual activity (EPHA3 (human)): 112%
- residual activity (MINK1 (human)): 97.7%
- residual activity (EPHB4 (human)): 88%
- residual activity (RPS6KA2 KD1 KD2 (human)): 97.1%
- residual activity (CSNK1G2 (human)): 76.4%
- residual activity (PNCK (human)): 90.3%
- residual activity (SYK (human)): 98.3%
- residual activity (TSSK2 (human)): 93.2%
- residual activity (FES (human)): 104%
- residual activity (PIM1 (human)): 104%
- residual activity (PRKCA (human)): 113%
- residual activity (AKT2 (human)): 95.9%
- residual activity (MAPK8 (human)): 99%
- residual activity (FGFR3 (human)): 91.8%
- residual activity (TXK (human)): 98.9%
- residual activity (PAK7 (human)): 97.6%
- residual activity (MAP3K5 (human)): 105%
- residual activity (CHEK1 (human)): 95.9%
- residual activity (PIM2 (human)): 121%
- residual activity (ULK2 (human)): 106%
- residual activity (MAP3K10 (human)): 101%
- residual activity (EPHA7 (human)): 76.3%

Compound: N#Cc1c[nH]c2c[nH]/c(=N\Cc3cccnc3)cc2/c1=N\c1ccc(F)c(Cl)c1
- residual activity (AKT1 (human)): 98.6%
- residual activity (MAP4K2 (human)): 72.2%
- residual activity (PRKCI (human)): 94.7%
- residual activity (HIPK2 (human)): 93.2%
- residual activity (IKBKE (human)): 90.6%
- residual activity (PAK6 (human)): 104%
- residual activity (HIPK1 (human)): 98.6%
- residual activity (PLK1 (human)): 92.6%
- residual activity (PBK (human)): 84.8%
- residual activity (EPHB3 (human)): 98.5%
- residual activity (MAPK3 (human)): 100%
- residual activity (MAPK1 (human)): 105%
- residual activity (FLT1 (human)): 88%
- residual activity (TGFBR2 (human)): 118%
- residual activity (MAP3K9 (human)): 87.5%
- residual activity (FRK (human)): 101%
- residual activity (RET (human)): 107%
- residual activity (MAPK9 (human)): 100%
- residual activity (MLTK (human)): 106%
- residual activity (PDGFRB (human)): 101%
- residual activity (EPHA3 (human)): 122%
- residual activity (MINK1 (human)): 77.5%
- residual activity (EPHB4 (human)): 85.2%
- residual activity (RPS6KA2 KD1 KD2 (human)): 87.3%
- residual activity (CSNK1G2 (human)): 102%
- residual activity (PNCK (human)): 99.8%
- residual activity (SYK (human)): 94.4%
- residual activity (TSSK2 (human)): 100%
- residual activity (FES (human)): 108%
- residual activity (PIM1 (human)): 92.7%
- residual activity (PRKCA (human)): 89.7%
- residual activity (AKT2 (human)): 101%
- residual activity (MAPK8 (human)): 110%
- residual activity (FGFR3 (human)): 91.7%
- residual activity (TXK (human)): 88.1%
- residual activity (PAK7 (human)): 98.3%
- residual activity (MAP3K5 (human)): 106%
- residual activity (CHEK1 (human)): 90.2%
- residual activity (PIM2 (human)): 101%
- residual activity (ULK2 (human)): 102%
- residual activity (MAP3K10 (human)): 101%
- residual activity (EPHA7 (human)): 83.7%

Compound: Cc1cccc(-c2nc(C(C)(C)C)[nH]c2-c2ccc3c(c2)OCO3)n1
- residual activity (AKT1 (human)): 94.6%
- residual activity (MAP4K2 (human)): 102%
- residual activity (PRKCI (human)): 92.8%
- residual activity (HIPK2 (human)): 101%
- residual activity (IKBKE (human)): 91.8%
- residual activity (PAK6 (human)): 103%
- residual activity (HIPK1 (human)): 101%
- residual activity (PLK1 (human)): 105%
- residual activity (PBK (human)): 103%
- residual activity (EPHB3 (human)): 103%
- residual activity (MAPK3 (human)): 111%
- residual activity (MAPK1 (human)): 95.8%
- residual activity (FLT1 (human)): 84.3%
- residual activity (TGFBR2 (human)): 105%
- residual activity (MAP3K9 (human)): 94%
- residual activity (FRK (human)): 98.8%
- residual activity (RET (human)): 103%
- residual activity (MAPK9 (human)): 98.2%
- residual activity (MLTK (human)): 97.8%
- residual activity (PDGFRB (human)): 106%
- residual activity (EPHA3 (human)): 101%
- residual activity (MINK1 (human)): 98.4%
- residual activity (EPHB4 (human)): 91.4%
- residual activity (RPS6KA2 KD1 KD2 (human)): 96.4%
- residual activity (CSNK1G2 (human)): 104%
- residual activity (PNCK (human)): 101%
- residual activity (SYK (human)): 87%
- residual activity (TSSK2 (human)): 92.7%
- residual activity (FES (human)): 108%
- residual activity (PIM1 (human)): 100%
- residual activity (PRKCA (human)): 99.6%
- residual activity (AKT2 (human)): 80.1%
- residual activity (MAPK8 (human)): 95.7%
- residual activity (FGFR3 (human)): 96.6%
- residual activity (TXK (human)): 100%
- residual activity (PAK7 (human)): 92.7%
- residual activity (MAP3K5 (human)): 103%
- residual activity (CHEK1 (human)): 89.8%
- residual activity (PIM2 (human)): 99.7%
- residual activity (ULK2 (human)): 75.4%
- residual activity (MAP3K10 (human)): 99.3%
- residual activity (EPHA7 (human)): 81.6%

Compound: COc1ccc(C(=O)Nc2sc3c(c2C(N)=O)CCCC3)cc1OC
- residual activity (AKT1 (human)): 99.7%
- residual activity (MAP4K2 (human)): 106%
- residual activity (PRKCI (human)): 91.8%
- residual activity (HIPK2 (human)): 107%
- residual activity (IKBKE (human)): 106%
- residual activity (PAK6 (human)): 85.7%
- residual activity (HIPK1 (human)): 90.2%
- residual activity (PLK1 (human)): 99%
- residual activity (PBK (human)): 103%
- residual activity (EPHB3 (human)): 92.4%
- residual activity (MAPK3 (human)): 95.2%
- residual activity (MAPK1 (human)): 91.2%
- residual activity (FLT1 (human)): 99.1%
- residual activity (TGFBR2 (human)): 134%
- residual activity (MAP3K9 (human)): 101%
- residual activity (FRK (human)): 88.8%
- residual activity (RET (human)): 102%
- residual activity (MAPK9 (human)): 118%
- residual activity (MLTK (human)): 93.8%
- residual activity (PDGFRB (human)): 90.9%
- residual activity (EPHA3 (human)): 108%
- residual activity (MINK1 (human)): 85%
- residual activity (EPHB4 (human)): 93.9%
- residual activity (RPS6KA2 KD1 KD2 (human)): 112%
- residual activity (CSNK1G2 (human)): 98.7%
- residual activity (PNCK (human)): 103%
- residual activity (SYK (human)): 91.2%
- residual activity (TSSK2 (human)): 94.6%
- residual activity (FES (human)): 102%
- residual activity (PIM1 (human)): 98.9%
- residual activity (PRKCA (human)): 96.6%
- residual activity (AKT2 (human)): 97%
- residual activity (MAPK8 (human)): 94.7%
- residual activity (FGFR3 (human)): 98.3%
- residual activity (TXK (human)): 96.2%
- residual activity (PAK7 (human)): 96.6%
- residual activity (MAP3K5 (human)): 94.8%
- residual activity (CHEK1 (human)): 112%
- residual activity (PIM2 (human)): 98.5%
- residual activity (ULK2 (human)): 105%
- residual activity (MAP3K10 (human)): 96.6%
- residual activity (EPHA7 (human)): 96.2%

From the kinase profiling compilation of Christmann-Franck et al. (2016)
